Experimental data reported in ChEMBL document CHEMBL1201862, “PubChem BioAssay data set” (2004).
The source made the active and inactive calls.

Experiments:
Cytochrome P450 1A2 = target: T1, Cytochrome P450 1A2 (Homo sapiens, UniProt P05177);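 also: PubChem cytochrome P450 panel assay, CYP1A2 panel member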
T1 sequence (P05177 whole entry): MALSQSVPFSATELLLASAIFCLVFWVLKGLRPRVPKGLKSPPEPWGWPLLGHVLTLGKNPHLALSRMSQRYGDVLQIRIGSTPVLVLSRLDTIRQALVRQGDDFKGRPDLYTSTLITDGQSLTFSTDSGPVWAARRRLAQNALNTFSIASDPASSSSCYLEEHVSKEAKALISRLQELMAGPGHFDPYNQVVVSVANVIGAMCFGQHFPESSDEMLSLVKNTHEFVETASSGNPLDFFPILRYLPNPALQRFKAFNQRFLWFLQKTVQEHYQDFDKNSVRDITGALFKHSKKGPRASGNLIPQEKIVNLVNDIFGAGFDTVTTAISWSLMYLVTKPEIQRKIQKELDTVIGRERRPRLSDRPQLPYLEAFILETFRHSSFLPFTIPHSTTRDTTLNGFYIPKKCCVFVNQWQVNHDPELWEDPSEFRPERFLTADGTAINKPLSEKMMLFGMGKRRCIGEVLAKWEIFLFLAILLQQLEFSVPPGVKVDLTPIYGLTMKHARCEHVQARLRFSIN

[1] = target: Luciferin 4-monooxygenase (Photinus pyralis, UniProt P08659); experiment: firefly luciferase enzyme inhibitors, dose response, biochemical, luminescence (AID 1891)
[2] = Luminescence Cell-Based Dose Confirmation HTS to Identify Inhibitors of Platelet Dense Granule Release. [Related pubchem assays: 1663 (Primary HTS), 1678 (Summary of Project)]; assay type: functional
Protein RecA = target: T2, Protein RecA (Mycobacterium tuberculosis, UniProt P9WHJ3); experiment: Fluorescence Cell-Free Homogeneous Dose Retest to Identify Inhibitors of RecA-Intein Splicing Activity. [Related pubchem assays (depositor defined):AID2097, AID2223, AID489010, AID492950]; assay type: functional
T2 sequence (P9WHJ3 whole entry): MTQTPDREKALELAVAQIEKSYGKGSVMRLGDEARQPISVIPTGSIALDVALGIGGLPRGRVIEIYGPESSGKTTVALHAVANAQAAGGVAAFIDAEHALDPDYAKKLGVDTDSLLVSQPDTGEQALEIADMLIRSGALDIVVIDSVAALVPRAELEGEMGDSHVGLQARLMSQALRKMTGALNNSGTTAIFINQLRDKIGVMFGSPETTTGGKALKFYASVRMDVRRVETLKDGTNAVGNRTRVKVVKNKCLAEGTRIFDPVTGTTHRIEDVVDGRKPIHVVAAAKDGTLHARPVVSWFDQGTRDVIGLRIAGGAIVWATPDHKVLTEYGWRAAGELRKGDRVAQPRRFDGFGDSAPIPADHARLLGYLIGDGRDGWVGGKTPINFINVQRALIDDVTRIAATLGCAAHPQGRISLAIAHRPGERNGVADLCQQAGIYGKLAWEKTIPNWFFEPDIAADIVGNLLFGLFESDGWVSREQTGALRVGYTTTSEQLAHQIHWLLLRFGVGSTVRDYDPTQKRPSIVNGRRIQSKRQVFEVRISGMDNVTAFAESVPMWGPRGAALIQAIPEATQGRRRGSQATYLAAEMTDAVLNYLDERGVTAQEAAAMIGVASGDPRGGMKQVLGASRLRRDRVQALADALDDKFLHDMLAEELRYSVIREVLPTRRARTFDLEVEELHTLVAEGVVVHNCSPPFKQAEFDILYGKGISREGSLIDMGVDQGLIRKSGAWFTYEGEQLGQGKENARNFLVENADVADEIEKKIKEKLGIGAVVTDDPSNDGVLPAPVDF

[3] = target: T3, Replicative DNA helicase DnaB (Mycobacterium tuberculosis, UniProt P9WMR3); experiment: DnaB intein splicing inhibitors, dose response, biochemical, cell-free fluorescence (AID 449749); assay type: functional
T3 sequence (P9WMR3 whole entry): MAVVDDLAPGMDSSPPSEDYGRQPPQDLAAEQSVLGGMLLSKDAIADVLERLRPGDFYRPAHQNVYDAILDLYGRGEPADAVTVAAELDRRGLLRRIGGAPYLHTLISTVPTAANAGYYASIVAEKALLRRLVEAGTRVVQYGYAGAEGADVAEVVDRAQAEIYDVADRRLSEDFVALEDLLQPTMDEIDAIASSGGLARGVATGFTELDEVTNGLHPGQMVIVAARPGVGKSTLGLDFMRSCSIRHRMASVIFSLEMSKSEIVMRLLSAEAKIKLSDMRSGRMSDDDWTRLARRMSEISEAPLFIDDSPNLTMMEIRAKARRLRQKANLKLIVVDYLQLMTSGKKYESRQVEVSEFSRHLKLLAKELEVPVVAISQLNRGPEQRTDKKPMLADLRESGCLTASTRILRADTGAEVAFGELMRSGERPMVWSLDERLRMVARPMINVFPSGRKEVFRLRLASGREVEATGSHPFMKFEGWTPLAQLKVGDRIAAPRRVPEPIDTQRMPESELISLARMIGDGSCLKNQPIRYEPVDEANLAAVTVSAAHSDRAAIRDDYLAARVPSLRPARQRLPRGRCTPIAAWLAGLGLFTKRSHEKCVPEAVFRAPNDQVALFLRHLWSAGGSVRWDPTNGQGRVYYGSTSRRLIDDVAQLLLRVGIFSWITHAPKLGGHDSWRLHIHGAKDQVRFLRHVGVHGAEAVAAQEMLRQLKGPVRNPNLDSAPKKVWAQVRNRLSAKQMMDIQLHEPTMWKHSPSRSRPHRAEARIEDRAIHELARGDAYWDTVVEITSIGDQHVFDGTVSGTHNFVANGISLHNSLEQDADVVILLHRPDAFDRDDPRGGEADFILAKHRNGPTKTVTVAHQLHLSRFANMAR

Cytochrome P450 2C19 = Cytochrome P450 2C19 (Homo sapiens, UniProt P33261); experiment: Cytochrome panel assay with activity outcomes. Panel member name: p450-cyp2c19 Compounds with AC50 equal or less than 10 uM are considered active; assay type: functional
Cytochrome P450 3A4 = Cytochrome P450 3A4 (Homo sapiens, UniProt P08684);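 also: CYP3A4 tested as one member of a cytochrome P450 panel screen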
Streptokinase A = target: T4, Streptokinase A (Streptococcus pyogenes serotype M1, UniProt P10520); experiment: S. pyogenes streptokinase expression inhibitors, potency, dose response, plasminogen activation absorbance, OD405 (AID 1914); assay type: functional, Streptococcus pyogenes M1 GAS;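 also: secreted streptokinase activity via plasminogen activation per viability signal from cell pellet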
T4 sequence (P10520 whole entry): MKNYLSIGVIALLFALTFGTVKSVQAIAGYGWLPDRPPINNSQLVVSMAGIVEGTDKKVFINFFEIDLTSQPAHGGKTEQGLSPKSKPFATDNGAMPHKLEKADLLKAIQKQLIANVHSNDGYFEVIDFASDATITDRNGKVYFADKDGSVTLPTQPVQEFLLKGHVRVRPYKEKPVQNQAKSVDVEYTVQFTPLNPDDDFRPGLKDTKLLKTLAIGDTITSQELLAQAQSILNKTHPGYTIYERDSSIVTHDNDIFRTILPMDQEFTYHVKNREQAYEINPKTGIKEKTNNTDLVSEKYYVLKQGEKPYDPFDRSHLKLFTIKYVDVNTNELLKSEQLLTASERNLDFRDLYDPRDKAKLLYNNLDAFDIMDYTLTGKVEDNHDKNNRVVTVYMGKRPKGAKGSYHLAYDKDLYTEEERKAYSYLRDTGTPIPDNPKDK

[4] = cytotoxicity toward NIH3T3 fibroblasts, dose response, counter-screen, cell-based, ATP luminescence, mouse fibroblasts (AID 2010); assay type: functional;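 also: cells exposed to compound for about 90 hours before reading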
[5] = inhibitors of intracellular T. cruzi replication, confirmation, NIH3T3 host cells, beta-gal luminescence (AID 2044); assay type: functional, cell-based;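 also: intracellular parasites grown in NIH/3T3 mouse fibroblasts as host cells; luminescent beta-galactosidase reporter signal from transgenic T. cruzi replicating inside host cells; inhibitors lower the luminescence signal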

Cytochrome P450 2C19, sequence (P33261 whole entry): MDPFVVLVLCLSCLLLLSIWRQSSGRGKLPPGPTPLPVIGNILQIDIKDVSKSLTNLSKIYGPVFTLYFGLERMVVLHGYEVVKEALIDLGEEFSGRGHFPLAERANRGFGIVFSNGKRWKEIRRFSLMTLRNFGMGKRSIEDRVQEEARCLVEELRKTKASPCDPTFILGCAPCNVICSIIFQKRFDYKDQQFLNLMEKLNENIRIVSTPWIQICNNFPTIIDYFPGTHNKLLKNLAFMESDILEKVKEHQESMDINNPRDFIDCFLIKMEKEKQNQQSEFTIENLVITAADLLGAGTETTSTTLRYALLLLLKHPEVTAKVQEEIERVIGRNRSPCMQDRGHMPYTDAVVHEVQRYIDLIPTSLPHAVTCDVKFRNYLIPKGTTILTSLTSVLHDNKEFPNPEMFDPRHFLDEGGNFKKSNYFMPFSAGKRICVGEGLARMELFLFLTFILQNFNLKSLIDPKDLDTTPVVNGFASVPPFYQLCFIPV
Cytochrome P450 3A4, sequence (P08684 whole entry): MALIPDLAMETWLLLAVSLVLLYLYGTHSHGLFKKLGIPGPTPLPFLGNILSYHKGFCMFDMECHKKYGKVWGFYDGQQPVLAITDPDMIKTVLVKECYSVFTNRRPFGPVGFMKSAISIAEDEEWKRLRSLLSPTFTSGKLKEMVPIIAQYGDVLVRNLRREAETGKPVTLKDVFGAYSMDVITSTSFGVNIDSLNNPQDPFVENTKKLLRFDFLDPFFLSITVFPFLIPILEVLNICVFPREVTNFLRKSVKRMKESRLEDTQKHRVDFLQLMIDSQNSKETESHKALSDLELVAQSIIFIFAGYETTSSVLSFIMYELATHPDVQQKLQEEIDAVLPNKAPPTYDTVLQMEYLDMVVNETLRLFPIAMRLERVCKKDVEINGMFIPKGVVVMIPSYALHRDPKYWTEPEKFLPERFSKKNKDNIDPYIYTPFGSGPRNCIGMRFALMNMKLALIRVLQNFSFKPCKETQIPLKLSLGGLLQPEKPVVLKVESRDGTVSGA
Luciferin 4-monooxygenase, sequence (P08659 whole entry): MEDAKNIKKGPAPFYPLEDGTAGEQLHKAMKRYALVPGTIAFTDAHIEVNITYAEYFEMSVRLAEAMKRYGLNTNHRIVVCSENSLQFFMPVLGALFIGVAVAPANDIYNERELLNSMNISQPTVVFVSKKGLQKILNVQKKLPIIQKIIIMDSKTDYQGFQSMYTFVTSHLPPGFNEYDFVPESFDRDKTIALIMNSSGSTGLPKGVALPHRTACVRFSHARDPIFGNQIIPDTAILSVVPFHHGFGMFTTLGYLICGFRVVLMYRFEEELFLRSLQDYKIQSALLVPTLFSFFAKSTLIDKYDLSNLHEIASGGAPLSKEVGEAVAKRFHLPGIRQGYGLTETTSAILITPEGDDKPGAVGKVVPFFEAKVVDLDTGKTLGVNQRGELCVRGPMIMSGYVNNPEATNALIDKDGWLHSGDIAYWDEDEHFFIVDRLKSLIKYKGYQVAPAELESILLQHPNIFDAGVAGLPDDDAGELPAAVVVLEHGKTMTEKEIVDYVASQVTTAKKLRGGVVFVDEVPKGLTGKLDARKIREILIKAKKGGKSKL

With `Cn1c(N)nc2c(nc(OCc3ccccc3)n2[C@@H]2O[C@H](CO)[C@@H](O)[C@@H]2O)c1=O` the AC50 (Cytochrome P450 1A2) was 0.00251 µM (inconclusive).
For `CCOC1OC2C(CO)OC(n3cnc4c(N)ncnc43)C2O1` (stereo not drawn), the EC50 [1] was > 112 µM (not active) and the EC50 [2] was 6.37 µM (active).
With `[O-][n+]1c2c(nc3c1-c1ccccc1C3O)CCCC2` (stereo not drawn) the EC50 (Protein RecA) was 18.6 µM (active) and the AC50 [3] was 19.4 µM (active).
For `O=C(Oc1ccc(-n2cnnn2)cc1)c1ccco1`, the EC50 (Protein RecA) was 12.7 µM (active) and the AC50 [3] was 15.3 µM (active).
For `COc1cc(C2NC(=O)NC(O)(C(F)(F)F)C2C(=O)c2ccc(Cl)cc2)ccc1O` (stereo not drawn), the AC50 (Cytochrome P450 1A2) was 39.8 µM (inconclusive), the AC50 (Cytochrome P450 2C19; read-out: AC50) was 11.2 µM (inconclusive) and the AC50 (Cytochrome P450 3A4) was 15.8 µM (inconclusive).
In the case of `COc1ccc(NC(=O)N2CC[C@@]3(CCCN(C(C)=O)C3)C2)cc1`, the AC50 (Cytochrome P450 1A2) was 39.8 µM (inconclusive).
With `O=C(NNS(=O)(=O)c1ccccc1)c1cccnc1` the EC50 [1] was > 112 µM (not active), the EC50 [2] was > 112 µM (not active) and the AC50 (Cytochrome P450 3A4) was 3.98 µM (inconclusive).
In the case of `CC(C)Oc1ccc(CNC(=O)c2ccc3c(c2)N(C)CCS3)cc1`, the EC50 [1] was 20.4 µM (active) and the EC50 [2] was > 112 µM (not active).
In the case of `COC(=O)c1sc(N)c(C(=O)OC)c1Cn1ncc(Cl)c(Cl)c1=O`, the EC50 (Protein RecA) was 0.541 µM (active) and the AC50 [3] was 2.66 µM (active).
With `O=C(NC(c1ccccc1)c1ccccc1)c1ccc(O)nn1` the EC50 [1] was > 112 µM (not active) and the EC50 [2] was 5.32 µM (active).
For `COc1ccccc1CC(=O)NNC(=O)CN(C)S(=O)(=O)c1ccc(Cl)cc1`, the EC50 [1] was > 112 µM (not active) and the EC50 [2] was > 112 µM (not active).
For `Cc1ccc(Oc2nc3ccccn3c(=O)c2/C=C(\C#N)C(=O)NC2CCS(=O)(=O)C2)cc1` (stereo not drawn), the EC50 [1] was > 112 µM (not active) and the EC50 [2] was 8.55 µM (active).
In the case of `COC(=O)c1[nH]c2cccc(OC)c2c1NC(=O)CN1CCOCC1`, the EC50 [1] was > 112 µM (not active) and the EC50 [2] was > 112 µM (not active).
For `CC1(c2ccccc2)NC(=O)N(CC(=O)N2CCN(S(=O)(=O)c3ccccc3[N+](=O)[O-])CC2)C1=O` (stereo not drawn), the EC50 [1] was > 112 µM (not active) and the EC50 [2] was > 112 µM (not active).
In the case of `Nc1c(NC=O)c(=O)n(Cc2ccccc2)c(=O)n1Cc1ccccc1`, the EC50 [1] was > 112 µM (not active) and the EC50 [2] was > 112 µM (not active).
With `CCCc1n[nH]c2c1C(c1ccc(OC(=O)N3CCOCC3)c(OC)c1)C(C#N)=C(N)O2` (stereo not drawn) the EC50 (Protein RecA) was 10 µM (active) and the AC50 [3] was 32.2 µM (active).
For `CC(=O)c1ccc(NC(S)=NC(C)CCc2ccccc2)cc1` (stereo not drawn), the EC50 [1] was > 112 µM (not active) and the EC50 [2] was > 112 µM (not active).
For `O=c1c(-c2ccc(Cl)cc2)[n+]([O-])c2ccccc2n1OCc1ccccn1`, the AC50 (Cytochrome P450 1A2) was 1.26 µM (inconclusive), the AC50 (Cytochrome P450 2C19; read-out: AC50) was 2.82 µM (inconclusive) and the AC50 (Cytochrome P450 3A4) was 7.08 µM (inconclusive).
In the case of `CCOC(=O)c1c(NC(=S)N2CCN(C)CC2)sc(C)c1-c1ccccc1`, the EC50 (Streptokinase A) was 22.4 µM (active).
With `Cc1ccc(C2C(C#N)=C(N)Oc3[nH]c(-c4ccccc4)nc32)o1` (stereo not drawn) the EC50 (Protein RecA) was 5.11 µM (active) and the AC50 [3] was 21.5 µM (active).
For `CCOc1ccc(CN2CCN(CC3=Cc4cccc(OC)c4OC3)CC2CCO)cc1` (stereo not drawn), the EC50 [4] was > 60 µM (not active), the EC50 (Protein RecA) was > 380 µM (inactive) and the EC50 [5] was 0.303 µM (active). For the same molecule, the AC50 [3] was > 380 µM (inactive).
With `COc1ccc(NC(=O)CN2CCN(CC(=O)Nc3ccccc3Cl)CC2)cc1` the AC50 (Cytochrome P450 1A2) was 25.1 µM (inconclusive).
With `C=C(C)CC1(NC(C)c2ccccc2)CCCCC1` (stereo not drawn) the EC50 [1] was > 112 µM (not active) and the EC50 [2] was > 112 µM (not active).
With `CCN(CC)C(=O)CSc1nnc(-c2ccco2)n1N` the AC50 (Cytochrome P450 1A2) was 17.8 µM (inconclusive).
With `COc1ccc(OC)c(C2C(C#N)=C(N)Oc3c2c(C)nn3-c2cccc(Cl)c2)c1` (stereo not drawn) the EC50 (Protein RecA) was 6.94 µM (active) and the AC50 [3] was > 380 µM (inactive).
For `CCOc1ccc(N2C(=O)CC(Sc3nc4ccc(OCC)cc4s3)C2=O)cc1` (stereo not drawn), the EC50 [1] was > 112 µM (not active) and the EC50 [2] was > 112 µM (not active).
For `COc1ccc(N2CCN(CCNC(=O)c3c(C)cc(=O)oc3C)CC2)cc1`, the AC50 (Cytochrome P450 1A2) was 25.1 µM (inconclusive) and the AC50 (Cytochrome P450 3A4) was 14.1 µM (inconclusive).
With `O=C(Oc1cccc(OC(=O)c2ccco2)c1)c1ccco1` the EC50 (Protein RecA) was 19.8 µM (active) and the AC50 [3] was 2.88 µM (active).
For `O=C(Nc1ccccc1)N1CC[C@@]2(CCCN(C(=O)c3cc(C(F)(F)F)cc(C(F)(F)F)c3)C2)C1`, the AC50 (Cytochrome P450 1A2) was 25.1 µM (inconclusive), the AC50 (Cytochrome P450 2C19) was “inconclusive” and the AC50 (Cytochrome P450 3A4) was 12.6 µM (inconclusive).
For `O=C(Cn1nc(C(=O)O)c2ccccc2c1=O)NCC1CCCO1` (stereo not drawn), the EC50 [1] was > 112 µM (not active) and the EC50 [2] was > 112 µM (not active).
For `Cc1ccccc1N1C(=O)c2ccccc2C1Nc1cccnc1` (stereo not drawn), the EC50 (Protein RecA) was > 380 µM (inactive) and the AC50 [3] was > 380 µM (inactive).
With `O=C(c1nc2ccc([N+](=O)[O-])cc2nc1O)[C@@H](O)c1ccc2c(c1)OCO2` the AC50 (Cytochrome P450 1A2) was 3.16 µM (inconclusive).
For `COc1cc(/C=N/NC(=S)Nc2cccc(Cl)c2C)ccc1OCC(=O)N1CC(C)OC(C)C1` (stereo not drawn), the EC50 (Protein RecA) was 4 µM (active) and the AC50 [3] was 17.5 µM (active).
With `COc1cc(C[C@H]2C(=O)OC[C@@H]2Cc2ccc(OC)c(OC)c2)ccc1O` [ARCTIGENIN] the AC50 (Cytochrome P450 1A2) was 31.6 µM (inconclusive) and the AC50 (Cytochrome P450 2C19; read-out: AC50) was 0.00251 µM (inconclusive).
